Laboratory results: paper PMC9276671, “A first-in-human Phase I dose-escalation trial of the novel therapeutic peptide, ALM201, demonstrates a favourable safety profile in unselected patients with ovarian cancer and other advanced solid tumours” (British Journal of Cancer, 2022)
No end group written: not given here.

Test: Plasma pharmacokinetics of ALM201 in Phase I patients (validated LC-MS/MS, Phoenix WinNonlin)
Details: for Tmax: median, plasma LC-MS/MS; for Half-life: SC, day 1 cycle 1

Sequence: IRQQPRDPPTETLELEVSPDPAS [ALM201]
- level at 2 h (human, plasma, sc, 300 mg, Plasma concentration, geometric mean (CV%), 300 mg SC, day 1 cycle 1, 2 h after dosing, n = 3, LC-MS/MS): 2310 ng/mL
- level at 3 h (human, plasma, sc, 300 mg, Plasma concentration, geometric mean (CV%), 300 mg SC, day 1 cycle 1, 3 h after dosing, n = 3, LC-MS/MS): 2120 ng/mL
- level at 4 h (human, plasma, sc, 300 mg, Plasma concentration, geometric mean (CV%), 300 mg SC, day 1 cycle 1, 4 h after dosing, n = 3, LC-MS/MS): 1600 ng/mL
- level at 5 h (human, plasma, sc, 300 mg, Plasma concentration, geometric mean (CV%), 300 mg SC, day 1 cycle 1, 5 h after dosing, n = 3, LC-MS/MS): 1280 ng/mL
- level at 6 h (human, plasma, sc, 300 mg, Plasma concentration, geometric mean (CV%), 300 mg SC, day 1 cycle 1, 6 h after dosing, n = 3, LC-MS/MS): 901 ng/mL
- level at 7 h (human, plasma, sc, 300 mg, Plasma concentration, geometric mean (CV%), 300 mg SC, day 1 cycle 1, 7 h after dosing, n = 3, LC-MS/MS): 703 ng/mL
- level at 8 h (human, plasma, sc, 300 mg, Plasma concentration, geometric mean (CV%), 300 mg SC, day 1 cycle 1, 8 h after dosing, n = 3, LC-MS/MS): 420 ng/mL
- level at 0.5 h (human, plasma, sc, 300 mg, Plasma concentration, geometric mean (CV%), 300 mg SC, day 3 cycle 1, 0.5 h after dosing, n = 3, LC-MS/MS): 1970 ng/mL
- level at 1 h (human, plasma, sc, 300 mg, Plasma concentration, geometric mean (CV%), 300 mg SC, day 3 cycle 1, 1 h after dosing, n = 3, LC-MS/MS): 2590 ng/mL
- level at 1.5 h (human, plasma, sc, 300 mg, Plasma concentration, geometric mean (CV%), 300 mg SC, day 3 cycle 1, 1.5 h after dosing, n = 2 values (CV NC), LC-MS/MS): 1950 ng/mL
- level at 2 h (human, plasma, sc, 300 mg, Plasma concentration, geometric mean (CV%), 300 mg SC, day 3 cycle 1, 2 h after dosing, n = 2 values (CV NC), LC-MS/MS): 2450 ng/mL
- level at 4.5 h (human, plasma, sc, 300 mg, Plasma concentration, geometric mean (CV%), 300 mg SC, day 3 cycle 1, 4.5 h after dosing, n = 3, LC-MS/MS): 1740 ng/mL
- level at 7 h (human, plasma, sc, 300 mg, Plasma concentration, geometric mean (CV%), 300 mg SC, day 3 cycle 1, 7 h after dosing, n = 3, LC-MS/MS): 852 ng/mL
- level at 0.5 h (human, plasma, sc, 300 mg, Plasma concentration, geometric mean (CV%), 300 mg SC, day 18 cycle 1, 0.5 h after dosing, n = 3, LC-MS/MS): 2290 ng/mL
- level at 1 h (human, plasma, sc, 300 mg, Plasma concentration, geometric mean (CV%), 300 mg SC, day 18 cycle 1, 1 h after dosing, n = 3, LC-MS/MS): 2410 ng/mL
- level at 1.5 h (human, plasma, sc, 300 mg, Plasma concentration, geometric mean (CV%), 300 mg SC, day 18 cycle 1, 1.5 h after dosing, n = 3, LC-MS/MS): 2600 ng/mL
- level at 2 h (human, plasma, sc, 300 mg, Plasma concentration, geometric mean (CV%), 300 mg SC, day 18 cycle 1, 2 h after dosing, n = 3, LC-MS/MS): 2520 ng/mL
- level at 4.5 h (human, plasma, sc, 300 mg, Plasma concentration, geometric mean (CV%), 300 mg SC, day 18 cycle 1, 4.5 h after dosing, n = 3, LC-MS/MS): 1370 ng/mL
- level at 7 h (human, plasma, sc, 300 mg, Plasma concentration, geometric mean (CV%), 300 mg SC, day 18 cycle 1, 7 h after dosing, n = 3, LC-MS/MS): 767 ng/mL
- level at 0.5 h (human, plasma, sc, 300 mg, Plasma concentration, geometric mean (CV%), 300 mg SC, day 18 cycle 2, 0.5 h after dosing, n = 3, LC-MS/MS): 1990 ng/mL
- level at 1 h (human, plasma, sc, 300 mg, Plasma concentration, geometric mean (CV%), 300 mg SC, day 18 cycle 2, 1 h after dosing, n = 3, LC-MS/MS): 2280 ng/mL
- level at 1.5 h (human, plasma, sc, 300 mg, Plasma concentration, geometric mean (CV%), 300 mg SC, day 18 cycle 2, 1.5 h after dosing, n = 3, LC-MS/MS): 2380 ng/mL
- level at 2 h (human, plasma, sc, 300 mg, Plasma concentration, geometric mean (CV%), 300 mg SC, day 18 cycle 2, 2 h after dosing, n = 3, LC-MS/MS): 2540 ng/mL
- level at 4.5 h (human, plasma, sc, 300 mg, Plasma concentration, geometric mean (CV%), 300 mg SC, day 18 cycle 2, samples collected at 4.5 hours, n = 3, LC-MS/MS): 720 ng/mL
- level at 7 h (human, plasma, sc, 300 mg, Plasma concentration, geometric mean (CV%), 300 mg SC, day 18 cycle 2, samples collected at 7.0 hours, n = 3, LC-MS/MS): 485 ng/mL
- level at 0.5 h (human, plasma, sc, 300 mg, Plasma concentration, geometric mean (CV%), 300 mg SC, day 18 cycle 4, 0.5 h after dosing, n = 1, LC-MS/MS): 1670 ng/mL
- level at 1 h (human, plasma, sc, 300 mg, Plasma concentration, geometric mean (CV%), 300 mg SC, day 18 cycle 4, 1 h after dosing, n = 1, LC-MS/MS): 2140 ng/mL
- level at 1.5 h (human, plasma, sc, 300 mg, Plasma concentration, geometric mean (CV%), 300 mg SC, day 18 cycle 4, 1.5 h after dosing, n = 1, LC-MS/MS): 1990 ng/mL
- level at 2 h (human, plasma, sc, 300 mg, Plasma concentration, geometric mean (CV%), 300 mg SC, day 18 cycle 4, 2 h after dosing, n = 1, LC-MS/MS): 1990 ng/mL
- level at 4.5 h (human, plasma, sc, 300 mg, Plasma concentration, geometric mean (CV%), 300 mg SC, day 18 cycle 4, sample collected at 4.5 hours, n = 1, LC-MS/MS): 854 ng/mL
- level at 7 h (human, plasma, sc, 300 mg, Plasma concentration, geometric mean (CV%), 300 mg SC, day 18 cycle 4, sample collected at 7.0 hours, n = 1, LC-MS/MS): 387 ng/mL
- level at 0.5 h (human, plasma, sc, 300 mg, Plasma concentration, geometric mean (CV%), 300 mg SC, day 18 cycle 6, 0.5 h after dosing, n = 1, LC-MS/MS): 3150 ng/mL
- level at 1 h (human, plasma, sc, 300 mg, Plasma concentration, geometric mean (CV%), 300 mg SC, day 18 cycle 6, 1 h after dosing, n = 1, LC-MS/MS): 4430 ng/mL
- level at 1.5 h (human, plasma, sc, 300 mg, Plasma concentration, geometric mean (CV%), 300 mg SC, day 18 cycle 6, 1.5 h after dosing, n = 1, LC-MS/MS): 5240 ng/mL
- level at 2 h (human, plasma, sc, 300 mg, Plasma concentration, geometric mean (CV%), 300 mg SC, day 18 cycle 6, 2 h after dosing, n = 1, LC-MS/MS): 6830 ng/mL
- level at 4.5 h (human, plasma, sc, 300 mg, Plasma concentration, geometric mean (CV%), 300 mg SC, day 18 cycle 6, sample collected at 4.5 hours, n = 1, LC-MS/MS): 3600 ng/mL
- level at 7 h (human, plasma, sc, 300 mg, Plasma concentration, geometric mean (CV%), 300 mg SC, day 18 cycle 6, sample collected at 7.0 hours, n = 1, LC-MS/MS): 693 ng/mL
- Tmax (human, plasma, sc, 300 mg, 300 mg SC, day 1 cycle 1, n = 3): 2 h
- Tmax (human, plasma, sc, 300 mg, 300 mg SC, day 3 cycle 1, n = 3): 1.02 h
- Tmax (human, plasma, sc, 300 mg, 300 mg SC, day 18 cycle 1, n = 3): 1.5 h
- Tmax (human, plasma, sc, 300 mg, 300 mg SC, day 18 cycle 4, n = 1): 1.12 h
- Tmax (human, plasma, sc, 300 mg, 300 mg SC, day 18 cycle 6, n = 1): 2.02 h
- Half-life (patient 02.002, 80 mg cohort): 1.80 h
- Half-life (patient 02.003, 160 mg cohort): 1.50 h
- Half-life (patient 03.005, 160 mg cohort): 0.90 h
